How the values were obtained:
Format in all cases: biochemical
human IP6K2 = target: T1, human IP6K2 (Homo sapiens, UniProt Q9UHH9); test: IP6K enzyme inhibitory assay (ADP-Glo Kinase Assay), human IP6K2; conditions: compound concentration 0.1 μM; read-out: ADP-Glo method inhibitory rate (%) human IP6K2
T1 construct: human IP6K2 (1-426) gene; GST; made in house; host or cells: Sf-9 insect cells
T1 sequence (Q9UHH9 1-426): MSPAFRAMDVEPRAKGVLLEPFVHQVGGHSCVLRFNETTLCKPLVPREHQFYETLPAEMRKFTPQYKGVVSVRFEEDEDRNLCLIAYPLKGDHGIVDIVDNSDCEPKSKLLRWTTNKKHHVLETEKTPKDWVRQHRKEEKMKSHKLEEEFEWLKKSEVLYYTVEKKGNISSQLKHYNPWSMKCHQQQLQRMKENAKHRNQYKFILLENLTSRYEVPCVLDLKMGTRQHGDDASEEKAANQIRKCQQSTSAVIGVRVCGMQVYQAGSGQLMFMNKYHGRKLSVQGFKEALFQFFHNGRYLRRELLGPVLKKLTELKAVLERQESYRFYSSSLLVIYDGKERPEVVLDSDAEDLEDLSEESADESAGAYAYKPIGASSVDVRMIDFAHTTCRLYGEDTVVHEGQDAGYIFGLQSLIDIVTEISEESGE
Experimental: (§1) IP6K Enzyme Inhibitory Assay
(§2) Human IP6K3 enzyme was prepared by transducing human IP6K3 (1-410) gene into BL21 (DE3) Escherichia coli and purifying by Ni-NTA (nickel-nitrilotriacetic acid) affinity column. […] The enzymes were used after preservation at −70° C. The IP6K enzyme inhibitory activity of the test compound was measured by the following experiment method and using ADP-Glo™ Kinase Assay (manufactured by Promega). A test compound diluted with an assay buffer (20 mM HEPES (pH 7.5), 6 mM MgCl2, 0.01% Tween-20, 1 mM DTT) was first added by 2 μL to a 384 well plate. […] The IP6K enzyme solution diluted with the assay buffer was added by 2 μL to start the enzyme reaction. Incubation was performed at room temperature for a given time (120 min for rat IP6K3 alone, 60 min for others). After incubation at room temperature, ADP-Glo solution prepared according to the protocol of Promega was added by 3 μL to the 384 well plate and reacted at room temperature for 30 min. Thereafter, Kinase-Detection solution was added by 6 μL to the 384 well plate and reacted at room temperature for 60 min. After the reaction, the luminescence intensity was measured by a plate reader Envision (manufactured by PerkinElmer).

human IP6K3 = target: T2, human IP6K3 (Homo sapiens, UniProt Q96PC2); test: IP6K enzyme inhibitory assay (ADP-Glo Kinase Assay), human IP6K3; conditions: compound concentration 0.1 μM; read-out: ADP-Glo method inhibitory rate (%) human IP6K3
T2 construct: human IP6K3 (1-410) gene; made in house; host or cells: BL21 (DE3) Escherichia coli
T2 sequence (Q96PC2 1-410): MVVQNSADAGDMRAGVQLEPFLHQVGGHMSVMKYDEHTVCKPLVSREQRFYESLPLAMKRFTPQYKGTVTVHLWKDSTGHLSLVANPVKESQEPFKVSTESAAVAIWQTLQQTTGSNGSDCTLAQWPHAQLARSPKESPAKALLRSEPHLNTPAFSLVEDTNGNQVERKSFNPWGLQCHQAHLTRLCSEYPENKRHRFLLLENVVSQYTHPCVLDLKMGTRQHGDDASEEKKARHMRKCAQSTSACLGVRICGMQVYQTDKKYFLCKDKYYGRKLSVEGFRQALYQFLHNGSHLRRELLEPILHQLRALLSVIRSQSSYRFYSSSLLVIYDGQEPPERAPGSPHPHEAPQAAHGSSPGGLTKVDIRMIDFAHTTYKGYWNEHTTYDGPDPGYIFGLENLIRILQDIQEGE
Experimental: as §1, §2

human IP6K1 = target: T3, human IP6K1 (Homo sapiens, UniProt Q92551); test: IP6K enzyme inhibitory assay (ADP-Glo Kinase Assay), human IP6K1; conditions: compound concentration 0.1 μM; read-out: ADP-Glo method inhibitory rate (%) human IP6K1
T3 construct: human IP6K1 (1-441) gene; GST; made in house; host or cells: Sf-9 insect cells
Experimental: as §1, §2

T3 sequence (Q92551 whole entry): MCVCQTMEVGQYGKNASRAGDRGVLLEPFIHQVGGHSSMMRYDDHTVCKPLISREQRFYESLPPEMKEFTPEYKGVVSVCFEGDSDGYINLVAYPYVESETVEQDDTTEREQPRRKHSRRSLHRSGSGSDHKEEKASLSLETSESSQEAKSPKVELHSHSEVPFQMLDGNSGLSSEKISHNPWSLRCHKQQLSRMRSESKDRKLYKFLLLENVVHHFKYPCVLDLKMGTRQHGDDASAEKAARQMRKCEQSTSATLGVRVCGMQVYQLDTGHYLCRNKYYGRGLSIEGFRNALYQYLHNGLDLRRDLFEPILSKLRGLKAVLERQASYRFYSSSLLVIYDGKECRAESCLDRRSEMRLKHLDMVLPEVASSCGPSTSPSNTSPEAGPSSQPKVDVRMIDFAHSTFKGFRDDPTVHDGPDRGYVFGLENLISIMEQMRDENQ

SMILES	inhibition at 0.1 µM (human IP6K2)	inhibition at 0.1 µM (human IP6K3)	inhibition at 0.1 µM (human IP6K1)
O=C(O)c1ccc2c(c1)[C@]1(CC[C@@H](Oc3ccc(F)cc3)CC1)C(=O)N2 [Example 2]	94%	100%	101%
O=C(O)c1ccc2c(c1)[C@]1(CC[C@@H](Oc3c(Cl)cc(Cl)cc3Cl)CC1)C(=O)N2 [Example 3, (1r,4r)-2′-oxo-4-(2,4,6-trichlorophenoxy)-1′,2′-dihydrospiro[cyclohexane-1,3′-indole]-5′-carboxylic acid]	101%	85%	101%
O=C(O)c1ccc2c(c1)[C@]1(CC[C@@H](Oc3ncc(F)cc3F)CC1)C(=O)N2 [Example 4, (1r,4r)-4-((3,5-difluoropyridin-2-yl)oxy)-2′-oxo-1′,2′-dihydrospiro[cyclohexane-1,3′-indole]-5′-carboxylic acid]	79%	99%	66%
O=C(O)c1ccc2c(c1)[C@]1(CC[C@@H](Oc3ccc(C(F)(F)F)nc3)CC1)C(=O)N2 [Example 6, (1r,4r)-2′-oxo-4-((6-(trifluoromethyl)pyridin-3-yl)oxy)-1′,2′-dihydrospiro[cyclohexane-1,3′-indole]-5′-carboxylic acid]	93%	97%	96%
NC(=O)c1cc(Cl)ccc1O[C@H]1CC[C@@]2(CC1)C(=O)Nc1ccc(C(=O)O)cc12 [Example 8, (1r,4r)-4-(2-carbamoyl-4-chlorophenoxy)-2′-oxo-1′,2′-dihydrospiro[cyclohexane-1,3′-indole]-5′-carboxylic acid]	97%	95%	100%
O=C(O)c1ccc2c(c1)[C@]1(CC[C@@H](Oc3ccc(Cl)cn3)CC1)C(=O)N2 [Example 11, (1r,4r)-4-((5-chloropyridin-2-yl)oxy)-2′-oxo-1′,2′-dihydrospiro[cyclohexane-1,3′-indole]-5′-carboxylic acid]	97%	102%	100%
O=C(O)c1ccc2c(c1)[C@]1(CC[C@@H](Oc3ccccc3Cl)CC1)C(=O)N2 [Example 12, (1r,4r)-4-(2-chlorophenoxy)-2′-oxo-1′,2′-dihydrospiro[cyclohexane-1,3′-indole]-5′-carboxylic acid]	97%	101%	95%

More lines, now with the values ahead:

inhibition at 0.1 µM (human IP6K2)	inhibition at 0.1 µM (human IP6K3)	inhibition at 0.1 µM (human IP6K1)	SMILES
100%	99%	100%	O=C(O)c1ccc2c(c1)[C@]1(CC[C@@H](Oc3ccc(Cl)cc3Cl)CC1)C(=O)N2 [Example 1, (1r,4r)-4-(2,4-dichlorophenoxy)-2′-oxo-1′,2′-dihydrospiro[cyclohexane-1,3′-indole]-5′-carboxylic acid]
89%	94%	86%	O=C(O)c1ccc2c(c1)[C@]1(CC[C@H](Oc3cc(F)cnc3F)CC1)C(=O)N2 [Example 5, (1s,4s)-4-((2,5-difluoropyridin-3-yl)oxy)-2′-oxo-1′,2′-dihydrospiro[cyclohexane-1,3′-indole]-5′-carboxylic acid]
101%	86%	100%	N#Cc1cc(Cl)ccc1O[C@H]1CC[C@@]2(CC1)C(=O)Nc1ccc(C(=O)O)cc12 [Example 7, (1r,4r)-4-(4-chloro-2-cyanophenoxy)-2′-oxo-1′,2′-dihydrospiro[cyclohexane-1,3′-indole]-5′-carboxylic acid]
100%	102%	98%	O=C(O)c1ccc2c(c1)[C@]1(CC[C@@H](Oc3ccc(C(F)(F)F)cc3)CC1)C(=O)N2 [Example 10, (1r,4r)-2-oxo-4-(4-(trifluoromethyl)phenoxy)-1′,2′-dihydrospiro[cyclohexane-1,3′-indole]-5′-carboxylic acid]
